We go through 19 molecules from PMC12526203, “Multicomponent Synthesis of Multi-Target Quinazolines Modulating Cholinesterase, Oxidative Stress, and Amyloid Aggregation Activities for the Therapy of Alzheimer’s Disease” (Molecules, 2025).

One experiment has as its target T1, equine BuChE (eqBuChE) (Equus caballus, UniProt P81908).
T1 construct: purchased Merck
The experiment can be described thus: biochemical. Format: biochemical. The conditions noted are these: for inhibition at 10 µM: read-out: % inhibition of eqBuChE at 10 μM (footnote c); for IC50: pH 8.0. The method, then: (§1) The inhibitory activities of the tested compounds against EeAChE and eqBuChE were determined using the spectrophotometric procedure based on Ellman’s method. […] After a pre-incubation step, acetylthiocholine iodide (105 µL, final concentration 0.35 mM) or butyrylthiocholine iodide (150 µL, final concentration 0.5 mM) was added, and the mixture was incubated for an additional 15 min.

Experiment [1] deals with T2, Electrophorus electricus AChE (EeAChE) (Electrophorus electricus, UniProt O42275).
T2 construct: purchased Merck
T2 sequence (O42275 24-633): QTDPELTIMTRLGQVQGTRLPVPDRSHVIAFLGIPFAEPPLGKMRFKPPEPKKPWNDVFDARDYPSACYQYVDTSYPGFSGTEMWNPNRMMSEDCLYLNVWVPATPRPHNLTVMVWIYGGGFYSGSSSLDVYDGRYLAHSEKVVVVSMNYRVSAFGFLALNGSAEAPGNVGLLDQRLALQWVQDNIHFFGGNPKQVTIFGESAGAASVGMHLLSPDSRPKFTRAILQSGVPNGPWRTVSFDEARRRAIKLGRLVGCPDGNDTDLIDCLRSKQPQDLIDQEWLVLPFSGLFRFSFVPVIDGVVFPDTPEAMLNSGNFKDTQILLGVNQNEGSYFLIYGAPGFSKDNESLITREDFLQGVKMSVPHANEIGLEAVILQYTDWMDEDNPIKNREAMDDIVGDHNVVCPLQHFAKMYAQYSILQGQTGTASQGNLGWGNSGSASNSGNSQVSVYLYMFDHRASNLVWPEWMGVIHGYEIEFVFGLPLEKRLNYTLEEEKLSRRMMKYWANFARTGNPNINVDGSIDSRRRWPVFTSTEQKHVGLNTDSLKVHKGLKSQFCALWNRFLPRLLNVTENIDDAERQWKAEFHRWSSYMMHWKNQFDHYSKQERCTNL
The experiment is described as follows: biochemical. The conditions noted are these: for inhibition at 10 µM: read-out: % inhibition of EeAChE at 10 μM (footnote c); for IC50: Ellman method, pH 8.0. On the procedure:
as §1

A further experiment has as its target T3, Aβ1–42 (Homo sapiens, UniProt P05067).
T3 construct: purchased Merck
The experiment can be described thus: Aβ1–42 self-aggregation, thioflavin T-based fluorometric assay. It is filed as biochemical. Particulars: ThT assay; for inhibition at 50 µM (stock): [Aβ] = [Inhibitor] = 50 μM (Figure 1 legend). The method, then:
Curcumin was used as a positive control.
A ThT fluorescence assay evaluated the effect of the test compounds on Aβ1−42 fibril formation. Aβ stock solutions were diluted to 50 μM in ultrapure water before use. […] Control samples were prepared by replacing Aβ with 50 mM phosphate buffer (pH 7.4), with or without the inhibitors. After incubation, samples were diluted to 360 μL with 50 mM glycine-NaOH buffer (pH 8.0) containing thioflavin T (5 μM).

Experiment [2] can be described thus: ORAC-FL (Oxygen Radical Absorbance Capacity by Fluorescence) assay. The conditions noted are these: Trolox equivalents. The method, then: Briefly, fluorescein and the test compound were pre-incubated in a black 96-well microplate (Nunc) at 37 °C for 15 min. Then, 2,2′-azobis(amidinopropane) dihydrochloride was rapidly added using the integrated injector of a Varioskan Flash plate reader (Thermo Scientific). […] Each experiment was conducted in triplicate, with a minimum of three independent assays performed per compound.

The conditions of experiment [3]: reported as a standard antioxidant; cited from earlier work.

SMILES strings stand for the structures. Several values for one entry are separate records, joined by “and”; a condition that tells them apart may be missing. Equal entries are not always repeated. Entries after “also recorded” stand apart in the source; their conditions may differ. Where two headings read alike, the source gives them in different places. A value given as a limit tells only on which side of the number the result lay.

T3 sequence (P05067 672-713): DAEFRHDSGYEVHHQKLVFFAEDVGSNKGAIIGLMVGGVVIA
T1 sequence (P81908 whole entry): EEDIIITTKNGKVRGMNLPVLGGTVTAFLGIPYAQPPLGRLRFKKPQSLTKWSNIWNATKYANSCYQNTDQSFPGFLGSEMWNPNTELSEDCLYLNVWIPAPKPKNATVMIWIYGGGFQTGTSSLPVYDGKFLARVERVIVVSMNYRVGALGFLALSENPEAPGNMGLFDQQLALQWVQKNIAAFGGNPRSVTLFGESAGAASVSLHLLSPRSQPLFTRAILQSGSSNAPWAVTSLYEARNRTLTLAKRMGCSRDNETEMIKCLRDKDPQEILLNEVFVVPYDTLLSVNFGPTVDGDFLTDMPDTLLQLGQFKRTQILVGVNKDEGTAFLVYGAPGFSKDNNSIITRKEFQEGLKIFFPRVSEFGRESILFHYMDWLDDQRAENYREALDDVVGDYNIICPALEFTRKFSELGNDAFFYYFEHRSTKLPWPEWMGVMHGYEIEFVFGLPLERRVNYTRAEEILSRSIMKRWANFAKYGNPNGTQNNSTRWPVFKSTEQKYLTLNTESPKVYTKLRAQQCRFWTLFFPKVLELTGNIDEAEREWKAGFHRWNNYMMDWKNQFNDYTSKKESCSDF

Regarding `c1ccc(Nc2ncnc3ccccc23)cc1` [3a, 4-anilinoquinazoline], the inhibition at 10 µM (on equine BuChE (eqBuChE); in experiment [1]) was below 50% throughout. Further, the inhibition at 50 µM (stock) against Aβ1–42 came out at 10.3%.

In the case of `Cc1nc(Nc2ccccc2)c2ccccc2n1` [3b, 2-Methyl-4-anilinoquinazoline], the inhibition at 10 µM (at equine BuChE (eqBuChE); in experiment [1]) was below 50% in each case. In addition, in experiment [2], the ORAC is listed as 0.51 ± 0.02 TE. Also, on Aβ1–42, the “Inhibition of Aβ1–42 self-aggregation (in words)” value is “did not display measurable activity”.

In turn, `CCc1nc(Nc2ccccc2)c2ccccc2n1` [3c, 2-Ethyl-4-anilinoquinazoline] registered an IC50 against equine BuChE (eqBuChE) (Ellman method) of 5.34 ± 0.15 µM. In experiment [1], the inhibition at 10 µM was below 50%.

As for `COc1cc(Nc2ncnc3ccccc23)cc(OC)c1` [3d, 4-(3,5-Dimethoxyphenyl)aminoquinazoline], the inhibition at 10 µM (on equine BuChE (eqBuChE); in experiment [1]) was below 50% in each case. For the same molecule, the “Inhibition of Aβ1–42 self-aggregation (in words)” value at Aβ1–42 is on record as “did not display measurable activity”.

`COc1cc(Nc2nc(C)nc3ccccc23)cc(OC)c1` [3e, 2-methyl-4-(3,5-Dimethoxyphenyl)aminoquinazoline]: the IC50 against equine BuChE (eqBuChE) (Ellman method) was 9.43 ± 1.13 µM; in experiment [1], 6.04 ± 1.05 µM. Besides, the ORAC in experiment [2] turned out to be 1.81 ± 0.19 TE. At Aβ1–42, the “Inhibition of Aβ1–42 self-aggregation (in words)” value is on record as “did not display measurable activity”.

`CCc1nc(Nc2cc(OC)cc(OC)c2)c2ccccc2n1` [3f, 2-ethyl-4-(3,5-Dimethoxyphenyl)aminoquinazoline] yielded an IC50 against equine BuChE (eqBuChE) (Ellman method) of 8.5 ± 1.16 µM. Moreover, the ORAC in experiment [2] came to 1.29 ± 0.08 TE. Besides, the inhibition at 10 µM in experiment [1] was below 50%. The inhibition at 50 µM (stock) at Aβ1–42 was found to be 13.6%.

Consider `COc1ccc(Nc2ncnc3ccccc23)cc1OC` [3g, 4-(3,4-Dimethoxyphenyl)aminoquinazoline], for which the inhibition at 10 µM (at equine BuChE (eqBuChE); in experiment [1]) was below 50% each time. The ORAC in experiment [2] is 5.46 TE and 5.46 ± 0.11 TE. The inhibition at 50 µM (stock) against Aβ1–42 stood at 14.7%.

On to `CCc1nc(Nc2ccc(OC)c(OC)c2)c2ccccc2n1` [3h, 2-ethyl-4-(3,4-Dimethoxyphenyl)aminoquinazoline], for which, at equine BuChE (eqBuChE) (Ellman method), the “eqBuChE inhibition (in words)” value was “inactive”. In addition, on equine BuChE (eqBuChE), the inhibition at 10 µM is below 50%. Moreover, the ORAC in experiment [2] was 5.73 TE and 5.73 ± 0.39 TE. For the same molecule, the IC50 in experiment [1] was 6.67 µM and 6.61 µM. This molecule returned an inhibition at 50 µM (stock) against Aβ1–42 of 36.7%.

For the molecule `Cc1ccc(Nc2ncnc3ccccc23)cc1` [3i, 4-(p-Tolyl)aminoquinazoline], the inhibition at 10 µM (on equine BuChE (eqBuChE); in experiment [1]) was below 50% in each case. Besides, the inhibition at 50 µM (stock) against Aβ1–42 came to 7.1%.

`Cc1ccc(Nc2nc(C)nc3ccccc23)cc1` [3j, 2-Methyl-4-(p-tolyl)aminoquinazoline]: the inhibition at 10 µM (on equine BuChE (eqBuChE); in experiment [1]) was below 50% in each case. Moreover, the ORAC in experiment [2] is 0.75 ± 0.08 TE. Moreover, the inhibition at 50 µM (stock) on Aβ1–42 is 21.2%.

Turning to `CCc1nc(Nc2ccc(C)cc2)c2ccccc2n1` [3k, 2-Ethyl-4-(p-tolyl)aminoquinazoline], the inhibition at 10 µM (at equine BuChE (eqBuChE); in experiment [1]) was below 50% throughout. Further, the ORAC in experiment [2] turned out to be 0.58 ± 0.04 TE. On Aβ1–42, this molecule had an inhibition at 50 µM (stock) of 9.4%.

As for `Cc1cccc(Nc2ncnc3ccccc23)c1C` [3l, 4-(2,3-Dimethylphenyl)aminoquinazoline], the inhibition at 10 µM (at equine BuChE (eqBuChE); in experiment [1]) was below 50% in each case. In addition, the ORAC in experiment [2] is on record as 0.32 ± 0.05 TE. On Aβ1–42, the inhibition at 50 µM (stock) was 8.74%.

For the molecule `Cc1nc(Nc2cccc(C)c2C)c2ccccc2n1` [3m, 2-methyl-4-(2,3-Dimethylphenyl)aminoquinazoline], the inhibition at 10 µM (at equine BuChE (eqBuChE); in experiment [1]) was below 50% throughout. Besides, the inhibition at 50 µM (stock) against Aβ1–42 came to 15.8%.

As to `O=[N+]([O-])c1ccc(Nc2ncnc3ccccc23)cc1` [3n, 4-(4-Nitrophenyl)aminoquinazoline], the inhibition at 10 µM (at equine BuChE (eqBuChE); in experiment [1]) was below 50% each time. The inhibition at 50 µM (stock) against Aβ1–42 worked out at 6.57%.

Regarding `Cc1nc(Nc2ccc([N+](=O)[O-])cc2)c2ccccc2n1` [3o, 2-Methyl-4-(4-nitrophenyl)aminoquinazoline], the inhibition at 10 µM (on equine BuChE (eqBuChE); in experiment [1]) was below 50% in each case. In addition, the ORAC in experiment [2] is reported as 0.36 ± 0.01 TE. The inhibition at 50 µM (stock) against Aβ1–42 is 13.7%.

On to `Clc1ccc(Nc2ncnc3ccccc23)cc1` [3p, 4-(4-Chlorophenyl)aminoquinazoline], for which the inhibition at 10 µM (on equine BuChE (eqBuChE); in experiment [1]) was below 50% throughout. For the same molecule, in experiment [2], the ORAC stood at 0.40 ± 0.07 TE. The “Inhibition of Aβ1–42 self-aggregation (in words)” value at Aβ1–42 was “inactive; also recorded: did not display measurable activity”.

Molecule `CCc1nc(Nc2ccc(Cl)cc2)c2ccccc2n1` [3q, 2-ethyl-4-(4-Chlorophenyl)aminoquinazoline] returned a half-maximal inhibitory concentration (IC50) at equine BuChE (eqBuChE) (Ellman method) of 8.64 ± 0.3 µM. For the same molecule, the inhibition at 10 µM in experiment [1] is below 50%. Moreover, the inhibition at 50 µM (stock) against Aβ1–42 came out at 1.45%.

`COc1cc(/C=C/C(=O)CC(=O)/C=C/c2ccc(O)c(OC)c2)ccc1O` [Curcumin, reference compound] had an inhibition at 50 µM (stock) against Aβ1–42 of 58%.

Take `COc1cc(/C=C/C(=O)O)ccc1O` [ferulic acid]: the ORAC in experiment [3] was 3.7 TE.

In general, inhibition refers to how much of the control response was suppressed. The term IC50 denotes the concentration needed to halve the response being measured. Low values mean greater potency, high ones weaker potency.
